Source: patent publication US8673617B2, “Culture medium for Haemophilus influenzae type B” (Sanofi Pasteur SA, priority 2007, dated 2014)

What was measured:
[1] = test system: Haemophilus influenzae serotype b; assay: PRP production in liquid wheat peptone-based culture medium as a function of heme source (sandwich ELISA on supernatant); format: cell-based; conditions: wheat medium, 16 h
Protocol: (§1) The production of PRP obtained after 16 hours of bacterial culture in liquid plant peptones-based culture media in which the heme source was either hemin or protoporphyrin IX of animal origin (porcine protoporphyrin) in disodium salt form, or protoporphyrin IX of purely synthetic origin in disodium salt form was compared. The hemin and protoporphyrin IX concentration ranges in the culture media varied from about 0.010 g/l to about 2 g/l so as to obtain PRP titration curves as a function of the heme source tested and as a function of the plant peptone tested. An enzymatic hydrolysate of garden pea peptone provided by Kerry (Hy pea 7404) and a wheat peptone provided by Organotechnie (19559) were tested at a concentration in the culture medium equivalent to 0.87 g/l of protein nitrogen. By reference to the current methods for the production of PRP, PRP production was also measured in a medium that contains a peptone of animal origin, such as casein hydrolysate (HAC) provided by Solabia at a concentration in the medium equivalent to 0.87 g/l with increased concentrations of hemin (see table III).
(§2) 1.1) Preparation of the Media • 1.1.1. Stock solution of β-NAD (Fluka) at 1 g/l in water which was ultrafiltered and then sterilized by filtration through 0.22 μm. • 1.1.2. Stock solution of hemin (Sigma) at 0.25 g/l in water was ultrafiltered, comprising 5 ml of 25% aqueous ammonia (Cooper) to aid dissolution. The stock solution was sterilized by filtration through 0.22 μm. • 1.1.3. Stock solution of porcine protoporphyrin IX (Sigma) at 0.25 g/l in ultrafiltered water comprising 5 ml of 25% aqueous ammonia (Cooper) in order to facilitate the dissolution. The stock solution was sterilized by filtration through 0.22 μm. • 1.1.4. Stock solution of synthetic protoporphyrin IX at 0.25 g/l in ultrafiltered water comprising 5 ml of 25% aqueous ammonia (Cooper) in order to facilitate the dissolution. The stock solution was also heated to 80° C. in a water bath with stirring in order to complete the dissolution before being sterilized by filtration through 0.22 μm. The protoporphyrin IX, in disodium salt form, was synthesized according to the method described in the U.S. provisional patent application Ser. No. 12/057,574, filed Mar. 28, 2008 and application Ser. No. 60/943,735 and filed on Jun. 13, 2007 using the steps which are described in scheme 2. • The stock solutions of hemin and protoporphyrin IX were checked for their respective contents of active compounds after sterilizing filtration. The protoporphyrin IX and hemin contents were determined by Reversed Phase High Performance Liquid Chromatography (RP-HPLC). The chromatographic chain comprises a twin head pump module allowing the formation of a binary gradient, a programmable automatic injector, a diode array UV detector and a chromatographic column of the type Synergi 4 μm, Polar RP-80A (150×4.6) mm, ref 00F-4336-E0, Phenomenex. • The stock solution of hemin (Sigma) to be checked after filtration was diluted ⅓ in distilled water. The stock solutions of porcine protoporphyrin IX (Sigma) and of synthetic protoporphyrin IX to be checked after filtration were diluted ¼ in distilled water. In parallel, a calibration series was prepared in ammoniated water ranging from 0.025 g/l to 0.125 g/l of protoporphyrin IX from porcine protoporphyrin IX from Sigma (ref: 25838-5) and a calibration series ranging from 0.050 g/l to 0.150 g/l of hemin from hemin from Sigma (ref: H5533-256). The samples to be checked and the various solutions of the calibration series were injected in a volume of 20 μl (for the hemin solutions and samples) and of 5 μl (for the protoporphyrin IX solutions and samples). The initial mobile phase consisting of a volume for volume mixture of acetonitrile and 10 mM KH2PO4 pH 2.5 is set at a flow rate of 1 ml/min. A discontinuous gradient was then produced from this mobile phase in order to separate the molecules of interest which are detected at a wavelength of 400 nm. […]

[2] = test system: Haemophilus influenzae serotype b; assay: PRP production in liquid garden pea peptone-based culture medium as a function of heme source (sandwich ELISA on supernatant); format: cell-based; conditions: garden pea medium, 16 h
Protocol: as §1, with “The hemin and protoporphyrin IX concentration ranges in the culture media varied from about 0.010 g/l to about 2 g/l so as to obtain PRP titration curves as a function of the heme source tested and as a function of the plant peptone tested.” left out
as §2

[3] = synthetic protoporphyrin IX 9.96 μg/l
[4] = synthetic protoporphyrin IX 49.8 μg/l
[5] = synthetic protoporphyrin IX 99.6 μg/l
[6] = synthetic protoporphyrin IX 249 μg/l
[7] = synthetic protoporphyrin IX 498 μg/l
[8] = synthetic protoporphyrin IX 996 μg/l
[9] = synthetic protoporphyrin IX 1494 μg/l
[10] = synthetic protoporphyrin IX 1992 μg/l

protoporphyrin IX [Synthetic protoporphyrin IX]
Mean PRP [1, 3]: 30.7 mg/L | PRP in mg/l Assay 1 [1, 3]: 33.5 mg/L | PRP in mg/l Assay 2 [1, 3]: 27.9 mg/L | Mean PRP [1, 4]: 318 mg/L | PRP in mg/l Assay 1 [1, 4]: 317 mg/L | PRP in mg/l Assay 2 [1, 4]: 319 mg/L | Mean PRP [1, 5]: 413 mg/L | PRP in mg/l Assay 1 [1, 5]: 389 mg/L | PRP in mg/l Assay 2 [1, 5]: 437 mg/L | Mean PRP [1, 6]: 347.5 mg/L | PRP in mg/l Assay 1 [1, 6]: 345 mg/L | PRP in mg/l Assay 2 [1, 6]: 350 mg/L | Mean PRP [1, 7]: 394.5 mg/L | PRP in mg/l Assay 1 [1, 7]: 380 mg/L | PRP in mg/l Assay 2 [1, 7]: 409 mg/L | Mean PRP [1, 8]: 402.5 mg/L | PRP in mg/l Assay 1 [1, 8]: 401 mg/L | PRP in mg/l Assay 2 [1, 8]: 404 mg/L | Mean PRP [1, 9]: 354 mg/L | PRP in mg/l Assay 1 [1, 9]: 358 mg/L | PRP in mg/l Assay 2 [1, 9]: 350 mg/L | Mean PRP [1, 10]: 404 mg/L | PRP in mg/l Assay 1 [1, 10]: 378 mg/L | PRP in mg/l Assay 2 [1, 10]: 430 mg/L | Mean PRP [2, 3]: 11.55 mg/L | PRP in mg/l Assay 1 [2, 3]: 11.3 mg/L | PRP in mg/l Assay 2 [2, 3]: 11.8 mg/L | Mean PRP [2, 4]: 136.5 mg/L | PRP in mg/l Assay 1 [2, 4]: 139 mg/L | PRP in mg/l Assay 2 [2, 4]: 134 mg/L | Mean PRP [2, 5]: 356.5 mg/L | PRP in mg/l Assay 1 [2, 5]: 330 mg/L | PRP in mg/l Assay 2 [2, 5]: 383 mg/L | Mean PRP [2, 6]: 488 mg/L | PRP in mg/l Assay 1 [2, 6]: 474 mg/L | PRP in mg/l Assay 2 [2, 6]: 502 mg/L | Mean PRP [2, 7]: 387.5 mg/L | PRP in mg/l Assay 1 [2, 7]: 383 mg/L | PRP in mg/l Assay 2 [2, 7]: 392 mg/L | Mean PRP [2, 8]: 499 mg/L | PRP in mg/l Assay 1 [2, 8]: 524 mg/L | PRP in mg/l Assay 2 [2, 8]: 474 mg/L | Mean PRP [2, 9]: 513 mg/L | PRP in mg/l Assay 1 [2, 9]: 503 mg/L | PRP in mg/l Assay 2 [2, 9]: 523 mg/L | Mean PRP [2, 10]: 488.5 mg/L | PRP in mg/l Assay 1 [2, 10]: 480 mg/L | PRP in mg/l Assay 2 [2, 10]: 497 mg/L
